# According to ChEMBL document CHEMBL1129242, “(2E)-5-[3-[(phenylsulfonyl)amino]phenyl]-pent-2-en-4-ynohydroxamic acid and its derivatives as novel and potent inhibitors of ras transformation” (1996):
# Tested on: NIH3T3
# Test: Minimum inhibitory concentration for the inhibition of transformation in ras- transformed cells(ras/ NIH3T3)
# Type: functional
# Conditions: Mus musculus
row,SMILES,MIC [µM]
1,COc1ccc(S(=O)(=O)Nc2cccc(C#C/C=C/C(=O)NO)c2)cc1,0.08
2,O=C(/C=C/C#Cc1cccc(NS(=O)(=O)c2ccc(F)cc2)c1)NO,0.08
3,CN(c1cccc(/C=C/C=C/C(=O)NO)c1)S(=O)(=O)c1ccccc1,0.6
4,O=C(/C=C/C#Cc1cccc(NS(=O)(=O)c2ccc3ccccc3c2)c1)NO,0.08
5,Cc1ccc(S(=O)(=O)Nc2cccc(C#C/C=C/C(=O)NO)c2)cc1,0.16
6,O=C(/C=C/C#Cc1cccc(NS(=O)(=O)c2ccc(Br)cc2)c1)NO,0.16
7,O=C(/C=C/C=C/c1cccc(NS(=O)(=O)c2ccccc2)c1)NO,0.3
8,O=C(/C=C/C=C/c1ccccc1NS(=O)(=O)c1ccccc1)NO,1.6
9,O=C(/C=C/C=C/c1ccc(NS(=O)(=O)c2ccccc2)cc1)NO,1.6
10,O=C(CCCC/C=C\c1ccccc1NS(=O)(=O)c1ccccc1)NO,17
11,O=C(CCCC/C=C/c1ccccc1NS(=O)(=O)c1ccccc1)NO,4.3
12,O=C(/C=C/C#Cc1cccc(NS(=O)(=O)c2ccc([N+](=O)[O-])cc2)c1)NO,0.64
13,CN(c1ccccc1/C=C/C=C/C(=O)NO)S(=O)(=O)c1ccccc1,0.8
14,O=C(/C=C/C=C/c1cc2ccccc2n1S(=O)(=O)c1ccccc1)NO,0.4
15,O=C(/C=C/C=C/c1cc2ccccc2cc1NS(=O)(=O)c1ccccc1)NO,0.32

# Tested on: NIH3T3
# Test: Minimum inhibitory concentration for the inhibition of transformation in ras- transformed cells(ras/ NIH3T3); Not effective at the highest concentration tested (100 uM)
# Type: functional, cell-based
# Conditions: Mus musculus
row,SMILES,MIC
1,O=C(/C=C/C#CC#Cc1cccc(NS(=O)(=O)c2ccccc2)c1)NO,Not effective at the highest concentration tested (100 uM)
